Reference: patent publication US9896437B2, “Diarylhydantoin compounds” (The Regents of the University of California, priority 2007, dated 2018)

What was measured:
[1] = tested on: LNCaP cells with overexpressed AR (LN-AR); experiment: MTS assay of growth of LNCaP-AR cells
Description: LNCaP-AR cells can be maintained in Iscove's medium containing 10% FBS. The compounds are examined for their effect on growth of hormone refractory prostate cancer cells. Overexpressed LNCaP cells are used because these cells behave as hormone refractory prostate cancer cells in vitro and in vivo. Mitochondria activity by MTS assay is measured, a surrogate for growth. LNCaP cells with overexpressed AR (LN-AR) are maintained in Iscove's medium containing 10% FBS. Two days prior to drug treatment, the cells are grown in Iscove's medium containing 10% CS-FBS to deprive of androgens. The cells are then split and grown in Iscove's medium containing 10% CS-FBS with appropriate concentrations of R1881 and increasing concentrations of the test compounds. After four days incubation, cell growth is monitored by MTS (Promega, Madison, Wis.).
The inhibitory effect of compounds on growth of hormone refractory prostate cancer in the presence of 100 pM of R1881 is measured.

hormone refractory LAPC4 = experiment: Hormone refractory LAPC4 xenograft model; settings: compared with vehicle
Description: Compounds can also be tested in another xenograft model of hormone refractory prostate cancer, hormone refractory LAPC4. This model is established from passaging of hormone sensitive prostate cancer in castrated mice, which mimics the clinical progression of prostate cancer.

androgen receptor (AR) [2] = type: cell-based
Description: For example, the compounds can be subjected to tests using an artificial androgen receptor (AR) response reporter system in a hormone refractory prostate cancer cell line. The prostate cancer LNCaP cells are engineered to stably express about 5-fold higher level of AR than endogenous level. The exogenous AR has similar properties to endogenous AR in that both are stabilized by a synthetic androgen R1881. […] The antagonistic activity of the compounds for which the synthesis is described above can be examined in the presence of 100 pM of R1881. Engineered LNCaP cells (LNCaP-AR, also abbreviated LN-AR) are maintained in Iscove's medium containing 10% fetal bovine serum (FBS). Two days prior to drug treatment, the cells are grown in Iscove's medium containing 10% charcoal-stripped FBS (CS-FBS) to deprive of androgens. The cells are split and grown in Iscove's medium containing 10% CS-FBS with 100 pM of R1881 and increasing concentrations of test compounds. After two days of incubation, reporter activities are assayed.
To determine agonistic activities of different compounds, the stimulating activities on androgen receptor (AR) using the AR response reporter as the measure in the LN-AR system in the absence of R1881 can be examined.

androgen receptor (AR) [3] = type: cell-based; remark: listed apart in the source
Description: The LNCaP-AR cells are a line of lymph node carcinoma of prostate cells transduced with a plasmid that makes express androgen receptors.

androgen receptor (AR) [4] = target: androgen receptor (AR) (Homo sapiens, UniProt P10275, T878A); settings: parental LNCaP cells
Sequence of androgen receptor (AR) (Homo sapiens, UniProt P10275, T878A) (P10275 whole entry T878A): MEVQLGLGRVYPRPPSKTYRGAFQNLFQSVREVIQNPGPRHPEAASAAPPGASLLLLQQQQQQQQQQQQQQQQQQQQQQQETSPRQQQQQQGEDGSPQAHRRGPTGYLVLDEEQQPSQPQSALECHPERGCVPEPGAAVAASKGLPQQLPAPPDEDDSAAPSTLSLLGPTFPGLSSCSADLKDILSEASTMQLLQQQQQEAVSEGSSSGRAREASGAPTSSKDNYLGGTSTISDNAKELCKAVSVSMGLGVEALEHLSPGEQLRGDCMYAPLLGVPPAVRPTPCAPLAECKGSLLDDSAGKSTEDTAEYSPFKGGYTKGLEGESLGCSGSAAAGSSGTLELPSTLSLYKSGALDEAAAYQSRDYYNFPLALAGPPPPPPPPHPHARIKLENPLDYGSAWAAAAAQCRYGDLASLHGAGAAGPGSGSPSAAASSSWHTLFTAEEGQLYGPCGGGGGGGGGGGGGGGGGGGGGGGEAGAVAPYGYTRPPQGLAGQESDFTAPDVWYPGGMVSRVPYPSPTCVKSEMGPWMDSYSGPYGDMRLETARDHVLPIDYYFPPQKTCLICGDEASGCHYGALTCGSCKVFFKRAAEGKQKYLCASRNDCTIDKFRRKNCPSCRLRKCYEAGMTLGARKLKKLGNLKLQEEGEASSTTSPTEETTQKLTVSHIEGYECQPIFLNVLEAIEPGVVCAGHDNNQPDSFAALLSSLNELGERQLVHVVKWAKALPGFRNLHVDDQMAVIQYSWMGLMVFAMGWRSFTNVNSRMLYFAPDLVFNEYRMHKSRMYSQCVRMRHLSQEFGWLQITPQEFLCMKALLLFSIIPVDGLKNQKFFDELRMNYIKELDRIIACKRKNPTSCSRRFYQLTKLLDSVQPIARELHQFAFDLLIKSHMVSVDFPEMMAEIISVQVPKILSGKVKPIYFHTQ

LNCaP cells = experiment: MTS assay of growth of parental, hormone sensitive LNCaP cells

Compound: CC(O)(CS(=O)(=O)c1ccc(F)cc1)C(=O)Nc1ccc(C#N)c(C(F)(F)F)c1 (stereo not shown) [Bicalutamide]
- inhibitory effect on growth of hormone refractory prostate cancer ([1]; presence of 100 pM of R1881, MTS): does not inhibit
- inhibition of PSA expression (hormone refractory LAPC4): does not inhibit
- inhibition of growth (hormone refractory LAPC4): does not inhibit

Compound: C[C@]1(O)CC[C@H]2[C@@H]3CCC4=CC(=O)CCC4=C3C=C[C@@]21C [R1881]
- reporter activity response to androgen (androgen receptor (AR) [2]; LNCaP-AR cells): responds to low concentration
- concentration that strongly induces the secreted PSA level (androgen receptor (AR) [3]; LNCaP-AR cells): 25 pM
- concentration at which PSA is first induced (androgen receptor (AR) [4]): 100 pM
- concentration that stimulates growth ([1]; AR-overexpressed LNCaP, MTS): 25 µM
- concentration at which growth is first stimulated (LNCaP cells): 100 µM

Compound: CC1(C)C(=O)N(c2ccc(C#N)c(C(F)(F)F)c2)C(=S)N1CCCCO [RU59063]
- agonistic activity on AR (AR response reporter) (androgen receptor (AR) [2]; LN-AR system, hormone refractory, absence of R1881): can activate AR
- stimulation of PSA expression (agonistic activity) (androgen receptor (AR) [3]; hormone refractory prostate cancer, absence of R1881): can stimulate PSA expression
